This data set in a line: In vivo biodistribution of co-delivered barcoded LNPs by Next Generation Sequencing of barcodes in tissues. Conditions: liver, kidney, lung, heart and brain; tail vein, 0.01 mg/kg per barcoded payload; compared with formulations using Lipids 1 and 3. Further details: species or system BALB/c mice. The method, then:
LNP/barcode complexes were prepared as described in Example 5. LNP/Barcode complex formulations were made by mixing different LNP/Barcode complex formulations together in equal parts (unless otherwise noted), to form Study Groups 1 and 2. Study Group 1 was dosed with a complex formulation that included formulations F-1, F-2, F-3, F-4, F-5, F-6, F-7, F-8 and F-16 in equal parts. Study Group 2 was dosed with a complex formulation that included formulations F-9, F-10, F-11, F-12, F-13, F-14, F-15, F-16 and F-17 in equal parts, except for F-10 which was mixed at 1/10th the concentration. BALB/c mice were injected via tail vein with 0.01 mg/kg (per unique barcoded payload, except for oRNA2A in F-10, which was dosed at 0.001 mg/kg) for each of Study Groups 1 and 2 in a total volume of 5 mL/kg. Each Study Group was dosed in 6 mice, and an additional 3 mice were dosed with PBS control. At 6 hr post injection, 3 animals from Study Group 1 were humanely euthanized by CO2 inhalation and organs including liver, spleen, lung, heart, kidney, brain, and blood were collected and snap frozen using liquid nitrogen. […] BLI images were detected in the auto-exposure mode. The BLI signal was quantitated using Living Image 4.7 software (Perkin Elmer) following the manufacturer's instruction. After BLI analysis the weights of the collected organs was measured. […]

The results in this text go back to US20240200118A1, “COMPOSITIONS AND METHODS FOR OPTIMIZING TROPISM OF DELIVERY SYSTEMS FOR RNA” (Renagade Therapeutics Management Inc., priority 2021, published 2024).

Take `CCCCCCCCCCCCCCCCCC[N+](C)(CCCCCCCCCCCCCCCCCC)CCNC(=N)N.[Cl-]` [Lipid 2]: the “delivery to organs (barcode ratios normalized to the input material)” value is “superior delivery in most organs tested”.
